How the values were obtained:
[1] = target: Alpha-2 adrenergic receptor (Rattus norvegicus); test: Displacement of [3H]clonidine from adrenergic alpha-2 receptor in Sprague-Dawley rat cortex
[2] = target: T1, Phenylethanolamine N-methyltransferase (Homo sapiens, UniProt P11086); test: Inhibition of human PNMT by radiochemical assay
T1 sequence (P11086 whole entry): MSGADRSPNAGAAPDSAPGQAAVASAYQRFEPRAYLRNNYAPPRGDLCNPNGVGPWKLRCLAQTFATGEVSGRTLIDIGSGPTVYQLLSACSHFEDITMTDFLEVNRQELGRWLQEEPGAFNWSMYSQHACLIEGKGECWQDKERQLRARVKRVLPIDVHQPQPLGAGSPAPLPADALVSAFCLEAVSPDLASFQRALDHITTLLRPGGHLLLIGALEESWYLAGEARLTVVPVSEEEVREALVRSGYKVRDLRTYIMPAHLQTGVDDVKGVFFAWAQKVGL

Homo sapiens = species on record: Homo sapiens; test: Selectivity of Ki for human PNMT over Ki for rat alpha2 adrenoceptor
[3] = target: Phenylethanolamine N-methyltransferase (Homo sapiens) (UniProt P11086); test: Inhibition of human PNMT by radiochemical assay

CC1Cc2ccc(Br)cc2CN1 (racemic)
Ki [1]: 1.1 µM

C[C@@H]1Cc2sc([N+](=O)[O-])cc2CN1
Ki [1]: 13 µM

CC1Cc2sc(Br)cc2CN1 (stereo not drawn)
Ki [1]: 2.3 µM

NCCc1cccs1
Ki [2]: 300 µM
Ratio Ki (Homo sapiens): 0.004
Ki [1]: 1.2 µM

CC(=O)c1ccc2c(c1)CNCC2
Ki [3]: 5 µM

NCc1cccs1
Ki [2]: 450 µM
Ratio Ki (Homo sapiens): 0.12
Ki [1]: 27 µM

Cc1ccc2c(c1)CNCC2
Ki [3]: 2 µM

C[C@@H]1Cc2sc(C#N)cc2CN1
Ki [1]: 47 µM

c1ccc2c(c1)CCNC2 [1,2,3,4-TETRAHYDROISOQUINOLINE]
Ki [3]: 5 µM

C[C@H]1Cc2sc(C#N)cc2CN1
Ki [1]: 130 µM

C[C@H]1Cc2sc([N+](=O)[O-])cc2CN1
Ki [1]: 29 µM

NC(=O)c1cc2c(s1)CCNC2
Ki [1]: 4.1 µM

Cc1cc2c(s1)CCNC2
Ki [1]: 0.49 µM

O=[N+]([O-])C1=CC2CNCCC2S1 (stereo not drawn)
Ki [1]: 18 µM

NC(=O)c1ccc2c(c1)CNCC2
Ki [3]: 72 µM

c1cc2c(s1)CCNC2
Ki [1]: 1.5 µM

FC(F)(F)C1Cc2sc3ccccc3c2CN1 (stereo not drawn)
Ki [1]: > 500 µM

CC1Cc2ccccc2CN1 (racemic)
Ki [3]: 1.4 µM

FC(F)(F)C1CC2SC=CC2CN1 (stereo not drawn)
Ki [1]: 1500 µM

FC(F)(F)C1Cc2sc(Br)cc2CN1 (stereo not drawn)
Ki [1]: > 1000 µM

NCc1ccsc1
Ki [2]: 110 µM
Ratio Ki (Homo sapiens): 0.29
Ki [1]: 32 µM

NCCc1ccccc1 [PHENETHYLAMINE]
Ki [3]: 220 µM

BrC1=CC2CNCCC2S1 (stereo not drawn)
Ki [1]: 0.38 µM

N#Cc1cc2c(s1)CCNC2
Ki [1]: 16 µM

CC1Cc2sc3ccccc3c2CN1 (racemic)
Ki [3]: 0.067 µM

CC(=O)c1cc2c(s1)CCNC2
Ki [1]: 9.8 µM

CC1CC2SC=CC2CN1 (stereo not drawn)
Ki [1]: 29 µM

Source: ChEMBL document CHEMBL1140786, “Synthesis of 4,5,6,7-tetrahydrothieno[3,2-c]pyridines and comparison with their isosteric 1,2,3,4-tetrahydroisoquinolines as inhibitors of phenylethanolamine N-methyltransferase” (Bioorg Med Chem, 2008)
